Experiment [1] addresses T1, MC1R (Homo sapiens, UniProt Q01726). The following applies: read-out: Ki MC1R (values derived from literature); cited from earlier work.
The target in experiment [2] is T1, MC1R. The experiment can be described thus: Europium time-resolved fluorescence competitive binding assay (Eu-NDP-α-MSH) on HCT116/hMC1R cells. The arrangement: host or cells: HCT116. The following applies: HCT116/hMC1R cells, competition with Eu-NDP-α-MSH. As for the experimental part: (§1) HCT116 cells overexpressing hMC1R and HEK293 cells overexpressing hMC4R[23] or hMC5R were used in all studies. […] Cells were maintained under standard conditions (37° C. and 5% CO2) and were grown in Dulbecco's modified Eagle medium (DMEM) supplemented with 10% FBS and 5% penicillin/streptomycin. For HCT116/hMC1R cells, geneticin (G418S, 0.4 mg/mL) was added to the media to ensure proper selection.
Competitive binding assays were performed using HCT116/hMC1R cells and HEK293/hMC4R or hMC5R as previously described, with slight modifications. […] Poly-D-Lysine Coated Plates contain a PDL polymer coating that creates a uniform positive charge at the surface of the plastic, thereby facilitating cell attachment, growth and differentiation. […] Both labeled and non-labeled ligands were diluted in binding media (DMEM, 1 mM 1,10-phenanthroline, 200 mg/L bacitracin, 0.5 mg/L leupeptin, 0.3% BSA). In the case of the triblock polymer micelle solutions, micelles were allowed to equilibrate in solution for a period of 30 min prior to cell addition. Cells were incubated with labeled and non-labeled ligands for 1 hour at 37° C. Following incubation, cells were washed three times with wash buffer (50 mM Tris-HCl, 0.2% BSA, 30 mM NaCl) and 50 µL of enhancement solution (PerkinElmer) was added to each well. Cells were incubated for an additional 30 min at 37° C. prior to reading. […] Competition curves were analyzed with GraphPad Prism software using the sigmoidal dose-response (variable slope) classical equation for nonlinear regression analysis.
Competitive binding assays were also performed using 4-targeted triblock polymers, triblock polymer micelles, as well as untargeted micelles as a control (FIG. 4A-C).
Europium binding assays were conducted as previously published.^33, 40
Time-resolved lanthanide fluorescence competitive binding assays^33, 40 were performed in an effort to optimize ligand loading for maximal avidity. In these assays, increasing concentrations of micelles were measured for their ability to competitively displace Eu-labeled NDP-α-MSH 2. The remaining Eu was then measured using time resolved fluorescence (TRF, see Methods).

A further experiment has as its target MC4R (Homo sapiens, UniProt P32245). The experiment is described as follows: Europium competitive binding assay on HEK293/hMC4R cells. The arrangement: expressed in transfected cells; host or cells: HEK293. Here is the method:
as §1
Competitive binding assays were performed using HCT116/hMC1R cells and HEK293/hMC4R or hMC5R as previously described, with slight modifications. HCT116/hMC1R cells were plated in black PerkinElmer 96-well plates and HEK293/hMC4R and HEK293/hMC5R cells were plated on SigmaScreen Poly-D-Lysine Coated Plates (SigmaAldrich), all at a density of 10,000-30,000 cells/well. Poly-D-Lysine Coated Plates contain a PDL polymer coating that creates a uniform positive charge at the surface of the plastic, thereby facilitating cell attachment, growth and differentiation. […] Both labeled and non-labeled ligands were diluted in binding media (DMEM, 1 mM 1,10-phenanthroline, 200 mg/L bacitracin, 0.5 mg/L leupeptin, 0.3% BSA). […] Cells were incubated for an additional 30 min at 37° C. prior to reading. […] Competition curves were analyzed with GraphPad Prism software using the sigmoidal dose-response (variable slope) classical equation for nonlinear regression analysis.

For experiment [3], the target named is T2, MC5R (Homo sapiens, UniProt P33032). The experiment is described as follows: Europium competitive binding assay on HEK293/hMC5R cells. The arrangement: expressed in transfected cells; host or cells: HEK293. Here is the method:
HCT116 cells overexpressing hMC1R and HEK293 cells overexpressing hMC4R[23] or hMC5R were used in all studies. The parental human colorectal carcinoma cell line, HCT116 (American Type Culture Collection, CCL 247) was also used. Cells were maintained under standard conditions (37° C. and 5% CO2) and were grown in Dulbecco's modified Eagle medium (DMEM) supplemented with 10% FBS and 5% penicillin/streptomycin. For HCT116/hMC1R cells, geneticin (G418S, 0.4 mg/mL) was added to the media to ensure proper selection.
Competitive binding assays were performed using HCT116/hMC1R cells and HEK293/hMC4R or hMC5R as previously described, with slight modifications. HCT116/hMC1R cells were plated in black PerkinElmer 96-well plates and HEK293/hMC4R and HEK293/hMC5R cells were plated on SigmaScreen Poly-D-Lysine Coated Plates (SigmaAldrich), all at a density of 10,000-30,000 cells/well. […] Cells were incubated for an additional 30 min at 37° C. prior to reading. The plates were read on a PerkinElmer VICTOR×4 2030 multilabel reader using the standard Eu TRF measurement (340 nm excitation, […], and emission collection for […] at 615 nm). Competition curves were analyzed with GraphPad Prism software using the sigmoidal dose-response (variable slope) classical equation for nonlinear regression analysis. […]

For experiment [4], the target named is T2, MC5R. The note with it: footnote: value denotes an EC50; read-out: EC50 MC5R (values derived from literature); cited from earlier work.
Experiment [5] concerns A375/MC1R xenograft tumor. The experiment is described as follows: Intravital confocal imaging of dorsal skin-fold window chamber tumor xenograft. Type of experiment: in vivo, SCID mouse. The following applies: for tumor cell internalization of probe: 24 h after injection. Here is the method:
All procedures were carried out in compliance with the Guide for the Care and Use of Laboratory Animal Resources (1996), National Research Council, and approved by the Institutional Animal Care and Use Committee, University of South Florida. A dorsal skin-fold window chamber was used to study the pharmacokinetics of imaging agent uptake immediately after i.v. injection of the probe. Starting 3 days prior to the surgery, mice were daily administered 1 ml of sterile saline subcutaneously at the planned site of the window in order to loosen connective tissue and create a receiving “pocket”. SCID mice were prepared immediately before surgery; the surgical site was shaved, and then a combination of oxygen and isoflurane was used for anesthesia (animals underwent induction with 3.5% isoflurane and were maintained at 1.5-2.0%). The window chamber method utilizes a titanium steel or plexiglass “saddle” that is sutured to the back of the mouse and holds a flap of dorsal skin vertically away from the mouse's body. A small “window” of skin (approximately 5 mm in diameter) was surgically excised from the retained skin flap of the anesthetized SCID mouse. Tumor constructs were engineered using the tumor droplet method. A375/MC1R or A375 parental melanoma cells were suspended in 2.5 mg/ml of type I collagen (BD Biosciences #354249) and 1×DMEM at a final concentration of 2.5×10^6 cells/ml. Using a 48-well non-tissue culture plate, a 15 µl drop of the tumor cell suspension was polymerized in the center of the well. After brief polymerization (10-15 minutes) at 37° C., a microvessel outer layer was added that completely surrounded the droplet. The microvessel outer layer consisted of 3 mg/ml of type I collagen, 1×DMEM and, 12,000 to 15,000 GFP expressing rat microvessel fragments/ml. After 4-6 days of culture at 37 C, the constructs were then implanted into the “window chamber” by placing them directly onto the exposed subcutaneous fascia. A glass cover was then attached to the center of the “saddle” to cover the fascia and implanted tumor cells. […]

Square brackets hold non-standard residues; d marks the D form. Side chains are listed from the residue outwards. * marks the point of attachment. Cy5 maleimide = Cy5 dye as its maleimide, reacted with a thiol compound; Butanoyl(4-Ph) = O=C(CCCc1ccccc1)*; Mpa = O=C(O)CCS

T2 sequence (P33032 whole entry): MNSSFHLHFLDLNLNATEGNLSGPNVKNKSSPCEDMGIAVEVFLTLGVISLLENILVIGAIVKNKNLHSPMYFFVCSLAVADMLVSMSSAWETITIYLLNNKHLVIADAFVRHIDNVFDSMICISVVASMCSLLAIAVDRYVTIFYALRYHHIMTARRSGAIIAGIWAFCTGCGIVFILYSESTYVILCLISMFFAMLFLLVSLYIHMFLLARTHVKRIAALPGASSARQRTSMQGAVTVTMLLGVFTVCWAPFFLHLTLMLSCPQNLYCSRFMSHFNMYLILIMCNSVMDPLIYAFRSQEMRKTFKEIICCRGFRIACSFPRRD
T1 sequence (Q01726 whole entry): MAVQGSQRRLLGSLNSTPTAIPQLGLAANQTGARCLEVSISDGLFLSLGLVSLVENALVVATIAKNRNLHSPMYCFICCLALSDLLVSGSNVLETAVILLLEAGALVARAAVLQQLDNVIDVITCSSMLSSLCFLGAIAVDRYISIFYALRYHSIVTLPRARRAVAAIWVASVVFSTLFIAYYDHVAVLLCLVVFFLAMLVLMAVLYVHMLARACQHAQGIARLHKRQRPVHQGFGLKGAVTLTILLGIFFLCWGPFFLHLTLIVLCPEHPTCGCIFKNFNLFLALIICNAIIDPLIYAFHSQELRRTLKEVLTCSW
Sequence of MC4R (P32245 whole entry): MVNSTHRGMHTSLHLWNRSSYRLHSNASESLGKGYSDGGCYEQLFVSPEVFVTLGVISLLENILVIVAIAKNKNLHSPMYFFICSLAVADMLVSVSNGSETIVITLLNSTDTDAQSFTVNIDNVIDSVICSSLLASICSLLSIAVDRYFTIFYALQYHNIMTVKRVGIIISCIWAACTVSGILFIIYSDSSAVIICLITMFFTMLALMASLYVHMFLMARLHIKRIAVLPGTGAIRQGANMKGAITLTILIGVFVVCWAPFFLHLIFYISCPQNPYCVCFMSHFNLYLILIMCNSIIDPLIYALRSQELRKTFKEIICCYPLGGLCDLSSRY

As for `NC(=O)[C@H](Cc1c[nH]c2ccccc12)NC(=O)[C@H](CCCN=C(N)N)NC(=O)[C@@H](Cc1ccccc1)NC(=O)[C@H](Cc1cnc[nH]1)NC(=O)CCCc1ccccc1` [Compound 1, 4-phenylbutyryl-His-DPhe-Arg-Trp-NH2], at MC1R [1], the Ki is 0.01 nM.

As for `N=C(N)NCCC[C@H](NC(=O)[C@@H](Cc1ccccc1)NC(=O)[C@H](Cc1c[nH]cn1)NC(=O)C=Cc1ccc(O)cc1)C(=O)N[C@@H](Cc1c[nH]c2ccccc12)C(N)=O` [Compound 3, 4-hydroxycinnamoyl-His-DPhe-Arg-Trp-NH2], the “Ki MC1R (values determined)” value on MC1R [2] is “no affinity”. Besides, on MC4R, the “Ki MC4R (values determined)” value is “no affinity”. Moreover, the “Ki MC5R (values determined)” value at MC5R [3] is “no affinity”.

In the case of `CCCC[C@H](NC(=O)[C@@H](NC(=O)[C@@H](N)Cc1ccc(O)cc1)C(C)C)C(=O)NCC(=O)N[C@@H](Cc1cnc[nH]1)C(=O)N[C@H](Cc1ccc2ccccc2c1)C(=O)N[C@@H](CCCN=C(N)N)C(=O)N[C@H](Cc1c[nH]c2ccccc12)C(=O)N[C@@H](CC(=O)O)C(=O)N[C@@H](CCCN=C(N)N)C(=O)N[C@@H](Cc1ccccc1)C(=O)NCC(N)=O` [Compound 5, H-Tyr-Val-Nle-Gly-His-DNal(2′)-Arg-DTrp-Asp-Arg-Phe-Gly-NH2], the EC50 on MC5R [4] is 3.5 nM.

Regarding `C#CCCCC(=O)NCCCC[C@H](N)C(=O)N[C@@H](Cc1ccc(O)cc1)C(=O)N[C@H](C(=O)N[C@@H](CCCC)C(=O)NCC(=O)N[C@@H](Cc1cnc[nH]1)C(=O)N[C@H](Cc1ccc2ccccc2c1)C(=O)N[C@@H](CCCNC(=N)N)C(=O)N[C@H](Cc1c[nH]c2ccccc12)C(=O)N[C@@H](CC(=O)O)C(=O)N[C@@H](CCCNC(=N)N)C(=O)N[C@@H](Cc1ccccc1)C(=O)NCC(N)=O)C(C)C` [Compound 6, H-Lys(hex-5-ynoyl)-Tyr-Val-Nle-Gly-His-DNal(2′)-Arg-DTrp-Asp-Arg-Phe-Gly-NH2], the Ki came out at 1.74 nM on MC4R (read-out: Ki MC4R (values determined)) and 1.48 nM on MC5R [3] (read-out: Ki MC5R (values determined)).

Take “MC1R-Cy5: MC1R ligand conjugated to Cy5 maleimide dye ({Butanoyl(4-Ph)}-H[dF]RWGK([Mpa-Cy5 maleimide])-NH2)”: the “tumor cell internalization of probe” value is on record as “fully internalized” in experiment [5] and “detected inside the cells” in experiment [5] (listed as MC1R-635 probe). Moreover, the “time at which probe binds tumor cells in vivo” value in experiment [5] (after i.v. injection, 5 nmol/kg) is recorded as ≤ 5 min.

Broadly, the Ki is the equilibrium dissociation constant of an inhibitor or competing ligand from its target. One may read the EC50 as the concentration that produces a half-maximal response.

These data come from US9539301B2, “Melanotropin ligands for skin care” (THE ARIZONA BOARD OF REGENTS ON BEHALF OF THE UNIVERSITY OF …, priority 2011, dated 2017).
